Laboratory results: patent EP0279787A1, “Pharmaceutical compositions with synergistic antisecretory action for the healing of gastroduodenal ulcer” (ISTITUTO DE ANGELI S.p.A., priority 1987, dated 1988)

Tested on: gastric acid secretion
Assay: Lumen perfused stomach of the anaesthetized rat: inhibition of acid secretion evoked by histamine plus acetylcholine
Assay type: in vivo
Conditions: drug alone
Description: Experiments in lumen perfused stomach of the anaesthetized rat were performed, evoking acid secretion by histamin (0.5 mg/kg/h i.v.) and acetylcholine (0.5 mg/kg/h i.v.) given in combination. These two combined secretagogues evoked a response which was about 80% of the maximal effect achievable by maximally effective dose of either acetylcholine (8 mg/kg/h i.v.) or histamine (8 mg/kg/h i.v.) alone.
As soon as a steady level of acid output was reached, a combination of mifentidine/pirenzepine (1:10), or of DA-5047/pirenzepine (1:10) under the form of the compositions of the present invention, or mifentidine, DA-5047 and pirenzepine alone were administered intravenously. Each dose was administered to 8 animals.
The obtained data were submitted to linear regression analysis in order to calculate the dose inhibiting 50% (ED₅₀) the response of which is reported in the following table II: […]

Row | SMILES | Percent inhibition (dose 20 µg/kg i.v.) | Percent inhibition (dose 40 µg/kg i.v.) | Percent inhibition (dose 80 µg/kg i.v.) | Percent inhibition (dose 200 µg/kg i.v.) | Percent inhibition (dose 400 µg/kg i.v.) | Percent inhibition (dose 800 µg/kg i.v.)
1 | CC(C)NC=Nc1ccc(-c2c[nH]cn2)cc1 [Mifentidine, N-isopropyl-Nʹ-[4-(imidazol-4-yl)phenyl]-formamidines] | 20% | 36% | 58% | – | – | –
2 | CN1CCN(CC(=O)N2c3ccccc3C(=O)Nc3cccnc32)CC1 [Pirenzepine, reference compound] | – | – | – | 28% | 46% | 62%
3 | Cc1nc(-c2ccc(N=CNC(C)C)cc2)c[nH]1 [DA-5047, N-isopropyl-Nʹ-[4-(2- -methyl-imidazol-4-yl)phenyl]-formamidine] | 21% | 34% | 52% | – | – | –
